Bounds are passed on as bounds.

Format in all cases: cell-based
The test system of one assay is HTT mRNA. Put plainly: RT-qPCR splicing assay for HTT mRNA isoforms (canonical junction CJ and alternative junction AJ). To be noted: A673 or K562 cell line, 24 hours compound treatment; for IC50: decrease in CJ mRNA; for AC50: increase in AJ mRNA. On the procedure: (§1) Compounds described herein were used to modulate RNA transcript abundance in cells. The expression of a target mRNA was measured by detecting the formation of an exon-exon junction in the canonical transcript (CJ). A compound mediated exon-inclusion event was detected by observing an increase in formation of a new junction with an alternative exon (AJ). Real-time qPCR assays were used to detect these splicing switches and interrogate the potency of various compounds towards different target genes. A high-throughput real time quantitative PCR (RT-qPCR) assay was developed to measure these two isoforms of the mRNA (CJ and AJ) for an exemplary gene, HTT, together with a control housekeeping gene, GAPDH or GUSB or PPIA, used for normalization. Briefly, the A673 or K562 cell line was treated with various compounds described herein (e.g., compounds of Formula (I)). After treatment, the levels of the HTT mRNA targets were determined from each sample of cell lysate by cDNA synthesis followed by qPCR.
Cells-to-CT 1-step kit: ThermoFisher A25602, Cells-to-CT lysis reagent: ThermoFisher 4391851C, TaqMan™ Fast Virus 1-Step Master Mix: ThermoFisher 4444436 GAPDH: VIC-PL, ThermoFisher 4326317E (Assay: Hs99999905_m1)—used for K562/suspension cell lines GUSB: VIC-PL, ThermoFisher 4326320E (Assay: Hs99999908_m1)—used for K562/suspension cell lines PPIA: VIC-PL, ThermoFisher 4326316E (Assay: Hs99999904_m1)—used for A673/adherent cell lines
(§2) The A673 cell line was cultured in DMEM with 10% FBS. Cells were diluted with full growth media and plated in a 96-well plate (15,000 cells in 100 ul media per well). The plate was incubated at 37° C. with 5% CO2 for 24 hours to allow cells to adhere. An 11-point 3-fold serial dilution of the compounds was made in DMSO then diluted in media in an intermediate plate. Compounds were transferred from the intermediate plate to the cell plate with the top dose at a final concentration of 10 uM in the well. Final DMSO concentration was kept at or below 0.25%. The cell plate was returned to the incubator at 37° C. with 5% CO2 for an additional 24 hours.
(§3) The K562 cell line was cultured in IMDM with 10% FBS. For K562, cells were diluted with full growth media and plated in either a 96-well plate (50,000 cells in 50 uL media per well) or a 384-well plate (8,000-40,000 cells in 45 uL media per well). An 11-point 3-fold serial dilution of the compounds were made in DMSO then diluted in media in an intermediate plate. Compound was transferred from the intermediate plate to the cell plate with the top dose at a final concentration of 10 uM in the well. Final DMSO concentration was kept at or below 0.25%. Final volume was 100 uL for 96-well plate and 50 uL for 384-well plate. The cell plate was then placed in an incubator at 37° C. with 5% CO2 for 24 hours.
(§4) The cells were then gently washed with 50 uL-100 uL cold PBS before proceeding to addition of lysis buffer. 30 uL-50 uL of room temperature lysis buffer with DNAse I (and optionally RNAsin) was added to each well. Cells were shaken/mixed thoroughly at room temperature for 5-10 minutes for lysis to take place and then 3 uL-5 uL of room temperature stop solution was added and wells were shaken/mixed again. After 2-5 minutes, the cell lysate plate was transferred to ice for RT-qPCR reaction setup. The lysates could also be frozen at −80° C. for later use.
In some cases, a direct lysis buffer was used. An appropriate volume of 3× lysis buffer (10 mM Tris, 150 mM NaCl, 1.5%-2.5% Igepal and 0.1-1 U/uL RNAsin, pH 7.4) was directly added to either K562 or A673 cells in media and mixed by pipetting 3 times. The plates were then incubated at room temperature with shaking/rocking for 20-50 minutes to allow for lysis to take place. After this time, the cell lysate plate was transferred to ice to set up for the RT-qPCR reactions. The lysates could also be frozen at −80° C. for later use. […]
Background: In qPCR the cycle at which signal appears reflects the starting amount.

The test system of a further assay is HTT CJ mRNA. Nature of the assay: Gene panel canonical junction qPCR assay, HTT. To be noted: decrease in CJ mRNA levels, RT-qPCR. The method, then: as §1, §2, §3, §4
(§5) In some cases, a direct lysis buffer was used. An appropriate volume of 3× lysis buffer (10 mM Tris, 150 mM NaCl, 1.5%-2.5% Igepal and 0.1-1 U/uL RNAsin, pH 7.4) was directly added to either K562 or A673 cells in media and mixed by pipetting 3 times. The plates were then incubated at room temperature with shaking/rocking for 20-50 minutes to allow for lysis to take place. After this time, the cell lysate plate was transferred to ice to set up for the RT-qPCR reactions. The lysates could also be frozen at −80° C. for later use.
(§6) To set up 10 uL RT-qPCR reactions, cell lysates were transferred to 384-well qPCR plates containing the master mix according to the table below. The plates were sealed, gently vortexed, and spun down before the run. The volumes were adjusted accordingly in some instances where the reaction was carried in 20 uL. The table below summarizes the components of the RT-qPCR reactions:
(§7) The RT-qPCR reaction was performed using a QuantStudio (ThermoFisher) under the following fast cycling conditions. […]

For a further assay, the system named is SMN2 CJ mRNA. Nature of the assay: Gene panel canonical junction qPCR assay, SMN2. The note with it: decrease in CJ mRNA levels, RT-qPCR. On the procedure:
as §1, §2, §3, §4, §5, §6, §7

In another assay the test system is Target C CJ mRNA. Nature of the assay: Gene panel canonical junction qPCR assay, Target C. To be noted: decrease in CJ mRNA levels, RT-qPCR. On the procedure:
as §1, §2, §3, §4, §5, §6, §7

In general, IC50 refers to the concentration at which inhibition is half-maximal. A low value points to higher potency. As a reminder, the AC50 is the concentration at which the activity in the assay is half-maximal. The low end stands for activity at low concentration, the high end for activity only at high concentration. `CN(c1ccc2c(n1)CCOc1cc(-c3cn[nH]c3)ccc1-2)[C@@H]1C[C@H]2CC[C@@H](C1)N2` [Compound 127, N-[(1R,3S,5S)-8-azabicyclo[3.2.1]octan-3-yl]-N-methyl-13-(1H-pyrazol-4-yl)-10-oxa-6-azatricyclo[9.4.0.0^[2,7]]pentadeca-1(11),2(7),3,5,12,14-hexaen-5-amine]: the IC50 with HTT mRNA, in the assay on HTT CJ mRNA and in the assay with SMN2 CJ mRNA was more than 10 µM throughout. This compound gave a concentration at half-maximal activity (AC50) with HTT mRNA of more than 10 µM.
For `c1cnn(-c2ccc3c(c2)COc2nc(N(C4CC4)[C@@H]4C[C@H]5CCC[C@@H](C4)N5)ccc2-3)c1` [Compound 203], in the assay with HTT mRNA, the half-maximal inhibitory concentration (IC50) fell in the range of 1 to 10 µM and the half-maximal activity concentration (AC50) lay in the range of 1 to 10 µM.
Regarding `c1cc2c(cc1-c1cn[nH]c1)OCCc1nc(N[C@@H]3C[C@H]4CC[C@@H](C3)N4)ccc1-2` [Compound 140, N-[(1R,3S,5S)-8-azabicyclo[3.2.1]octan-3-yl]-13-(1H-pyrazol-4-yl)-10-oxa-6-azatricyclo[9.4.0.0^[2,7]]pentadeca-1(11),2(7),3,5,12,14-hexaen-5-amine], the IC50 in the assay on HTT mRNA, in the assay on HTT CJ mRNA and with SMN2 CJ mRNA was more than 10 µM in each case. Also, the half-maximal activity concentration (AC50) with HTT mRNA is more than 10 µM.
Take `c1cnn(-c2ccc3c(c2)COc2nc(N(C4CC4)[C@@H]4C[C@H]5CC[C@@H](C4)N5)ccc2-3)c1` [Compound 205]: in the assay on HTT mRNA, the IC50 was 1 to 10 µM and the half-maximal activity concentration (AC50) was in the range of 0.1 to 1 µM.
With `c1cnn(-c2ccc3c(c2)OCc2cc(N[C@@H]4C[C@H]5CC[C@@H](C4)N5)ccc2-3)c1` [Compound 119], the IC50 in the assay on HTT mRNA was more than 10 µM; in the assay with HTT CJ mRNA, more than 10 µM; in the assay with Target C CJ mRNA, 1 to 10 µM. This compound also showed a half-maximal activity concentration (AC50) in the assay with HTT mRNA of more than 10 µM.
As to `CN(c1ccc2c(c1)COc1cc(-n3cccn3)ccc1-2)[C@@H]1C[C@H]2CC[C@@H](C1)N2` [Compound 105], the concentration for half-maximal inhibition (IC50) in the assay on HTT mRNA, in the assay with HTT CJ mRNA and with SMN2 CJ mRNA was more than 10 µM in each case. The concentration at half-maximal activity (AC50) in the assay with HTT mRNA was more than 10 µM.
Consider `CN(c1ccc2c(c1)OCc1cc(-c3cn[nH]c3)ccc1-2)[C@@H]1C[C@H]2CC[C@@H](C1)N2` [Compound 104, (1R,3S,5S)—N-Methyl-N-[8-(1H-pyrazol-4-yl)-6H-benzo[c]chromen-3-yl]-8-azabicyclo[3.2.1]octan-3-amine], for which the IC50 in the assay with HTT mRNA, in the assay on HTT CJ mRNA and in the assay on Target C CJ mRNA was more than 10 µM throughout. For the same compound, the AC50 in the assay on HTT mRNA was more than 10 µM.
Regarding `c1cc2c(cc1N[C@@H]1C[C@H]3CC[C@@H](C1)N3)CCOc1cc(-c3cn[nH]c3)ccc1-2` [Compound 132, N-[5-(1H-pyrazol-4-yl)-8-oxatricyclo[9.4.0.0^[2,7]]pentadeca-1(11),2(7),3,5,12,14-hexaen-13-yl]-8-azabicyclo [3.2.1] octan-3-amine], the IC50 in the assay with HTT mRNA, with HTT CJ mRNA and in the assay with Target C CJ mRNA was more than 10 µM in each case. Moreover, the AC50 in the assay with HTT mRNA was more than 10 µM.
As for `Cc1cnc(-c2ccc3c(c2)COc2nc(N(C)[C@@H]4C[C@H]5CC[C@@H](C4)N5)ccc2-3)o1` [Compound 206], in the assay with HTT mRNA, the half-maximal inhibitory concentration (IC50) lay in the range of 0.1 to 1 µM and the AC50 was in the range of 0.1 to 1 µM.
In the case of `CN(c1ccc2c(n1)CCOc1cc(-n3cccn3)ccc1-2)[C@@H]1C[C@H]2CC[C@@H](C1)N2` [Compound 128, N-[(1R,3S,5S)-8-azabicyclo[3.2.1]octan-3-yl]-N-methyl-13-(pyrazol-1-yl)-10-oxa-6-azatricyclo[9.4.0.0^[2,7]]pentadeca-1(11),2(7),3,5,12,14-hexaen-5-amine], the IC50 in the assay on HTT mRNA, in the assay on HTT CJ mRNA and in the assay on Target C CJ mRNA was more than 10 µM throughout. For the same compound, the concentration at half-maximal activity (AC50) in the assay on HTT mRNA was more than 10 µM.
In the assay on HTT mRNA, `CC1(C)CC(N(c2ccc3c(n2)OCc2cc(-n4cccn4)ccc2-3)C2CC2)CC(C)(C)N1` [Compound 204] displayed a half-inhibitory concentration (IC50) of 1 to 10 µM and an AC50 of more than 10 µM.
On to `CN(c1ccc2c(c1)CCOc1cc(-c3cn[nH]c3)ccc1-2)[C@@H]1C[C@H]2CC[C@@H](C1)N2` [Compound 112], for which the IC50 in the assay with Target C CJ mRNA is more than 10 µM.
As to `CN(c1ccc2c(c1)CCOc1cc(-n3cccn3)ccc1-2)[C@@H]1C[C@H]2CC[C@@H](C1)N2` [Compound 138, (1R,3S,5S)—N-methyl-N-[5-(pyrazol-1-yl)-8-oxatricyclo[9.4.0.0^[2,7]]pentadeca-1(11),2(7), 3,5,12,14-hexaen-13-yl]-8-azabicyclo [3.2.1] octan-3-amine], the IC50 in the assay with HTT mRNA, in the assay with HTT CJ mRNA and with Target C CJ mRNA was 1 to 10 µM throughout. In the assay with HTT mRNA, this compound yielded a concentration at half-maximal activity (AC50) of 1 to 10 µM.
In the case of `CN(c1ccc2c(n1)CCOc1cc(-c3cn[nH]c3)ccc1-2)C1CC(C)(C)NC(C)(C)C1` [Compound 114, N-methyl-13-(1H-pyrazol-4-yl)-N-(2,2,6,6-tetramethylpiperidin-4-yl)-10-oxa-6-azatricyclo[9.4.0.0^[2,7]]pentadeca-1(11),2(7),3,5,12,14-hexaen-5-amine], the 50% inhibitory concentration (IC50) in the assay on HTT mRNA was 0.1 to 1 µM; in the assay on HTT CJ mRNA it was 0.1 to 1 µM; in the assay with Target C CJ mRNA, less than 0.1 µM. This compound also had a concentration at half-maximal activity (AC50) in the assay on HTT mRNA of less than 0.1 µM.
As for `C[C@H]1C[C@H](N(C)c2ccc3c(c2)OCc2cc(-c4cn[nH]c4)ccc2-3)CCN1` [Compound 102, (2S,4R)—N,2-dimethyl-N-[8-(1H-pyrazol-4-yl)-6H-benzo[c]chromen-3-yl]piperidin-4-amine], the IC50 with HTT mRNA, in the assay with HTT CJ mRNA and in the assay with Target C CJ mRNA was more than 10 µM each time. The compound also showed a half-maximal activity concentration (AC50) in the assay on HTT mRNA of more than 10 µM.
With `CC1(C)CC(Nc2ccc3c(n2)CCOc2cc(-c4cn[nH]c4)ccc2-3)CC(C)(C)N1` [Compound 141, 13-(1H-pyrazol-4-yl)-N-(2,2,6,6-tetramethylpiperidin-4-yl)-10-oxa-6-azatricyclo[9.4.0.0^[2,7]]pentadeca-1(11),2(7),3,5,12,14-hexaen-5-amine], the figures for the IC50 in the assay with HTT mRNA, in the assay with HTT CJ mRNA and in the assay with Target C CJ mRNA were more than 10 µM, more than 10 µM and 1 to 10 µM, respectively. Besides, the AC50 in the assay with HTT mRNA was more than 10 µM.
Compound `C[C@@H]1C[C@H](N(C)c2ccc3c(c2)OCc2cc(-c4cn[nH]c4)ccc2-3)CCN1` [Compound 101, (2R,4R)—N,2-dimethyl-N-[8-(1H-pyrazol-4-yl)-6H-benzo[c]chromen-3-yl] piperidin-4-amine] had an AC50 with HTT mRNA of more than 10 µM. The same compound registered an IC50 in the assay with Target C CJ mRNA of more than 10 µM.
In the assay with HTT mRNA, `CN(c1ccc2c(n1)COc1cc(-n3cccn3)ccc1-2)[C@@H]1C[C@H]2CC[C@@H](C1)N2` [Compound 109] showed an IC50 of 0.1 to 1 µM and an AC50 of 0.1 to 1 µM.

The record behind these values is US20230148184A1, “COMPOUNDS AND METHODS FOR MODULATING SPLICING” (REMIX THERAPEUTICS INC., priority 2020, published 2023).
